Source: PubChem BioAssay AID1963867 (Molecular Pharmacology Branch, DTP, NCI, 2024)
pIC50: −log10 of the molar value.

Test system: KRAS-mutant PDC tumor spheroid with HUVEC/MSC, viability
Test: Anticancer human tumor 327498-153-R-J2-PDC patient-derived uterine carcinosarcoma cell line growth inhibition [KRAS2]
Conditions: for pIC50: curve of first compound; for viability, T/C: stronger effect = lower value
Method in brief: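 KRAS-mutant tumor cells were grown as spheroids with HUVEC endothelial cells and human MSCs as stroma. Targeted agents were tested alone and with KRAS pathway inhibitors. Doses started at or near clinical Cmax, or 10 microM, descending half-log.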

[1] = second compound 0.0316 µM, first compound 0.000316 µM
[2] = second compound 0.0316 µM, first compound 0.001 µM
[3] = second compound 0.0316 µM, first compound 0.00316 µM
[4] = second compound 0.0316 µM, first compound 0.01 µM
[5] = second compound 0.0316 µM, first compound 0.0316 µM
[6] = second compound 0.1 µM, first compound 0.000316 µM
[7] = second compound 0.1 µM, first compound 0.001 µM
[8] = second compound 0.1 µM, first compound 0.00316 µM
[9] = second compound 0.1 µM, first compound 0.01 µM
[10] = second compound 0.1 µM, first compound 0.0316 µM
[11] = second compound 0.316 µM, first compound 0.000316 µM
[12] = second compound 0.316 µM, first compound 0.001 µM
[13] = second compound 0.316 µM, first compound 0.00316 µM
[14] = second compound 0.316 µM, first compound 0.01 µM
[15] = second compound 0.316 µM, first compound 0.0316 µM
[16] = second compound 1 µM, first compound 0.000316 µM
[17] = second compound 1 µM, first compound 0.001 µM
[18] = second compound 1 µM, first compound 0.00316 µM
[19] = second compound 1 µM, first compound 0.01 µM
[20] = second compound 1 µM, first compound 0.0316 µM
[21] = second compound 3.16 µM, first compound 0.000316 µM
[22] = second compound 3.16 µM, first compound 0.001 µM
[23] = second compound 3.16 µM, first compound 0.00316 µM
[24] = second compound 3.16 µM, first compound 0.01 µM
[25] = second compound 3.16 µM, first compound 0.0316 µM
[26] = second compound 0.0316 µM, first compound 0.1 µM
[27] = second compound 0.1 µM, first compound 0.1 µM
[28] = second compound 0.316 µM, first compound 0.1 µM
[29] = second compound 1 µM, first compound 0.1 µM
[30] = second compound 3.16 µM, first compound 0.1 µM
[31] = second compound 0.0316 µM, first compound 0.316 µM
[32] = second compound 0.0316 µM, first compound 1 µM
[33] = second compound 0.0316 µM, first compound 3.16 µM
[34] = second compound 0.0316 µM, first compound 10 µM
[35] = second compound 0.1 µM, first compound 0.316 µM
[36] = second compound 0.1 µM, first compound 1 µM
[37] = second compound 0.1 µM, first compound 3.16 µM
[38] = second compound 0.1 µM, first compound 10 µM
[39] = second compound 0.316 µM, first compound 0.316 µM
[40] = second compound 0.316 µM, first compound 1 µM
[41] = second compound 0.316 µM, first compound 3.16 µM
[42] = second compound 0.316 µM, first compound 10 µM
[43] = second compound 1 µM, first compound 0.316 µM
[44] = second compound 1 µM, first compound 1 µM
[45] = second compound 1 µM, first compound 3.16 µM
[46] = second compound 1 µM, first compound 10 µM
[47] = second compound 3.16 µM, first compound 0.316 µM
[48] = second compound 3.16 µM, first compound 1 µM
[49] = second compound 3.16 µM, first compound 3.16 µM
[50] = second compound 3.16 µM, first compound 10 µM
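Also: spheroids exposed to agents for seven days before reading.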
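For viability, T/C in this document: 100% = DMSO vehicle wells so lower means fewer viable cells.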

Molecule CC(=O)Nc1cccc(-n2c(=O)n(C3CC3)c(=O)c3c(Nc4ccc(I)cc4F)n(C)c(=O)c(C)c32)c1 + C=CC(=O)N1CCN(c2nc(OCC3CCCN3C)nc3c2CCN(c2cccc4cccc(C)c24)C3)CC1CC#N has a pIC50 (second compound 0.0316 µM) of 8.19, a pIC50 (second compound 0.1 µM) of 8.27 and a pIC50 (second compound 0.316 µM) of 8.46. It also gave a pIC50 (second compound 1 µM) of 9.89, a pIC50 (second compound 3.16 µM) of over 10.00 and a viability, T/C (second compound 0.0316 µM, first compound 0.0001 µM) of 72.7%. For the same molecule, the viability, T/C [1] was 64.8%, the viability, T/C [2] was 57.4% and the viability, T/C [3] was 58%. The viability, T/C [4] was 49.1%, the viability, T/C [5] was 31.4% and the viability, T/C (second compound 0.1 µM, first compound 0.0001 µM) was 67.1%. The viability, T/C [6] was 68.3%, the viability, T/C [7] was 58.4% and the viability, T/C [8] was 53%. It also gave a viability, T/C [9] of 47.8%, a viability, T/C [10] of 25.4% and a viability, T/C (second compound 0.316 µM, first compound 0.0001 µM) of 58.5%. For the same molecule, the viability, T/C [11] was 54.6%, the viability, T/C [12] was 55.7% and the viability, T/C [13] was 48%. The viability, T/C [14] was 44.7%, the viability, T/C [15] was 25.5% and the viability, T/C (second compound 1 µM, first compound 0.0001 µM) was 48.5%. It also gave a viability, T/C [16] of 52.4%, a viability, T/C [17] of 45.7% and a viability, T/C [18] of 41.9%. The viability, T/C [19] was 35.8%, the viability, T/C [20] was 22.1% and the viability, T/C (second compound 3.16 µM, first compound 0.0001 µM) was 0.75%. The viability, T/C [21] was 0.19%, the viability, T/C [22] was 0.19% and the viability, T/C [23] was 0.22%. It also gave a viability, T/C [24] of 0.18% and a viability, T/C [25] of 0.31%.

CN(C)C/C=C/C(=O)Nc1cc2c(Nc3ccc(F)c(Cl)c3)ncnc2cc1O[C@H]1CCOC1 + C=CC(=O)N1CCN(c2nc(OCC3CCCN3C)nc3c2CCN(c2cccc4cccc(C)c24)C3)CC1CC#N was tested, and the pIC50 (second compound 0.0316 µM) was under 7.00, the pIC50 (second compound 0.1 µM) was 7.66 and the pIC50 (second compound 0.316 µM) was 8.64. For the same molecule, the pIC50 (second compound 1 µM) was 8.55, the pIC50 (second compound 3.16 µM) was over 9.50 and the viability, T/C [1] was 88.8%. It also gave a viability, T/C [2] of 80.8%, a viability, T/C [3] of 74.4% and a viability, T/C [4] of 64.2%. The viability, T/C [5] was 66.5%, the viability, T/C [26] was 61.4% and the viability, T/C [6] was 62.9%. It also gave a viability, T/C [7] of 64.1%, a viability, T/C [8] of 50.8% and a viability, T/C [9] of 53.7%. For the same molecule, the viability, T/C [10] was 48.4%, the viability, T/C [27] was 47.5% and the viability, T/C [11] was 66.8%. The viability, T/C [12] was 56.2%, the viability, T/C [13] was 45.2% and the viability, T/C [14] was 44.8%. The viability, T/C [15] was 50.2%, the viability, T/C [28] was 45.1% and the viability, T/C [16] was 56.3%. It also gave a viability, T/C [17] of 54.9%, a viability, T/C [18] of 47% and a viability, T/C [19] of 49.1%. The viability, T/C [20] was 43.6%, the viability, T/C [29] was 44% and the viability, T/C [21] was 1.53%. For the same molecule, the viability, T/C [22] was 0.35%, the viability, T/C [23] was 0.21% and the viability, T/C [24] was 1.34%. It also gave a viability, T/C [25] of 0.49% and a viability, T/C [30] of 0.3%.

Molecule COC(=O)c1ccc2c(C(=Nc3ccc(N(C)C(=O)CN4CCN(C)CC4)cc3)c3ccccc3)c(O)[nH]c2c1 + C=CC(=O)N1CCN(c2nc(OCC3CCCN3C)nc3c2CCN(c2cccc4cccc(C)c24)C3)CC1CC#N has a pIC50 (second compound 0.0316 µM) of 6.85, a pIC50 (second compound 0.1 µM) of over 7.50 and a pIC50 (second compound 0.316 µM) of over 7.50. It also gave a pIC50 (second compound 1 µM) of over 7.50, a pIC50 (second compound 3.16 µM) of over 7.50 and a viability, T/C [5] of 52.8%. The viability, T/C [26] was 54.7%, the viability, T/C [31] was 42.9% and the viability, T/C [32] was 23.4%. The viability, T/C [33] was 8.28%, the viability, T/C [34] was 7.36% and the viability, T/C [10] was 45.9%. The viability, T/C [27] was 42%, the viability, T/C [35] was 37.1% and the viability, T/C [36] was 13%. It also gave a viability, T/C [37] of 7.74%, a viability, T/C [38] of 5.84% and a viability, T/C [15] of 49.2%. For the same molecule, the viability, T/C [28] was 41.6%, the viability, T/C [39] was 29.6% and the viability, T/C [40] was 14.4%. For the same molecule, the viability, T/C [41] was 5.46%, the viability, T/C [42] was 4% and the viability, T/C [20] was 38.6%. For the same molecule, the viability, T/C [29] was 21.5%, the viability, T/C [43] was 16.4% and the viability, T/C [44] was 9.18%. It also gave a viability, T/C [45] of 0.69%, a viability, T/C [46] of 1.72% and a viability, T/C [25] of 0.33%. It also gave a viability, T/C [30] of 0.16%, a viability, T/C [47] of 0.15% and a viability, T/C [48] of 0.12%. The viability, T/C [49] was 1.49% and the viability, T/C [50] was 0.32%.

O=C(c1cc(Cc2n[nH]c(=O)c3ccccc23)ccc1F)N1CCN(C(=O)C2CC2)CC1 + C=CC(=O)N1CCN(c2nc(OCC3CCCN3C)nc3c2CCN(c2cccc4cccc(C)c24)C3)CC1CC#N was tested, and the pIC50 (second compound 0.0316 µM) was 6.00, the pIC50 (second compound 0.1 µM) was 6.15 and the pIC50 (second compound 0.316 µM) was 6.31. For the same molecule, the pIC50 (second compound 1 µM) was 6.71, the pIC50 (second compound 3.16 µM) was over 7.50 and the viability, T/C [5] was 64.1%. For the same molecule, the viability, T/C [26] was 74.5%, the viability, T/C [31] was 104% and the viability, T/C [32] was 50.3%. It also gave a viability, T/C [33] of 26.2%, a viability, T/C [34] of 16.8% and a viability, T/C [10] of 61.5%. It also gave a viability, T/C [27] of 58.4%, a viability, T/C [35] of 56.4% and a viability, T/C [36] of 47.5%. The viability, T/C [37] was 25.6%, the viability, T/C [38] was 15.7% and the viability, T/C [15] was 58.8%. It also gave a viability, T/C [28] of 56.6%, a viability, T/C [39] of 51.2% and a viability, T/C [40] of 44.2%. For the same molecule, the viability, T/C [41] was 20.2%, the viability, T/C [42] was 14.4% and the viability, T/C [20] was 47.8%. The viability, T/C [29] was 56.3%, the viability, T/C [43] was 47.1% and the viability, T/C [44] was 38.8%. The viability, T/C [45] was 19.2%, the viability, T/C [46] was 13.8% and the viability, T/C [25] was 2.26%. For the same molecule, the viability, T/C [30] was 2.16%, the viability, T/C [47] was 2.51% and the viability, T/C [48] was 2.55%. The viability, T/C [49] was 3.25% and the viability, T/C [50] was 0.24%.
